From patent publication US20040082664A1, “Derivatives of hydroxyphenyl, a method for preparing thereof and their pharmaceutical composition” (priority 2002, published 2004)

Key:
GST-fused lck SH2 domain = biological target: T1, GST-fused lck SH2 domain (Homo sapiens, UniProt P06239); experiment: Inhibition of in vitro binding of lck SH2 domain to its cognate pYEEI peptide (BIAcore 2000); conditions: IC50 class for inhibition of GST-lckSH2 binding to immobilized biotinylated […]pYEEIPI peptide; read-out: BOND DEGREE WITH SH2 OF 1ck
T1 construct: GST (Glutathione transferase)-fused lck SH2 domain
T1 sequence (P06239 127-224 limits assumed): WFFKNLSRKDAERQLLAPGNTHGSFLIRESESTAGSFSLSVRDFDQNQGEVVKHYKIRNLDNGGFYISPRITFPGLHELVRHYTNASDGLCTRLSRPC
Procedure: The present inventors investigated the inhibition activity of phenyl derivatives on the interaction of GST (Glutathione transferase)-fused lck SH2 domain and a peptide […]pYEEIPI (comprising the sequence PYEEI, a cognate peptide of Lck SH2) by using a real time sensorgram (BIAcore 2000).
At first, the biotinylated peptide was fixed on the surface of BIAcore analysis apparatus and then GST-lckSH2 protein was injected over the surface of the immobilized peptides. The binding of GST-lck SH2 with the peptide is represented as the resonance units (referred as “RU” hereinafter) and 1,000 RU corresponds to a change in surface concentration of 1 ng/mm^2. The binding of GST-lck with the fixed peptide causes the change of refractory index, leading to the increase of RU. In the mean time, when the binding of GST-lck with the fixed peptide is inhibited, RU decreases. Those results are represented in Table 1.

skin allograft rejection = experiment: Inhibition of skin allograft rejection (Balb/c tail skin grafted onto C57BL/6 mouse); format: in vivo
Procedure: For the experiment, allogeneic Balb/c(H-2d) mouse-tail skin was grafted onto C57BL/6(H-2b) mouse. Generally 7-8 mice were assigned to each group. All the phenyl derivatives were dissolved in 100% ethanol, mixed with olive oil, and adjusted to the final concentration of ethanol therein less than 5%. […] Meanwhile, for the group of untreated mice, an olive oil-ethanol mixture was administered as a control. The grafted skin was monitored daily after the removal of the bandage on days 7-9. Rejection was defined as more than 80% necrosis of the graft epithelium.

[1] = tested on: collagen-induced rheumatoid arthritis; experiment: Inhibition of collagen-induced rheumatoid arthritis in DBA1/LacJ mice; format: in vivo, mouse; parameters: key: sum of 4 leg scores (0-4 each), max 16; conditions: 50 mg/kg/day i.p. daily; day 15 after treatment (day 36 after primary immunization); sum of scores of four legs, maximum 16; mean ± standard deviation
Procedure: After 2 weeks, booster immunization was carried out with 50 μg C II/IFA. From the 3rd week after primary immunization, compounds of the present invention were injected daily into peritoneal cavities of 6-8 mice per group for 15-20 days.
The vehicle control groups were injected daily with 100 μl of 5% ethanol-olive oil mixture in total 15-20 times. Widely used anti-rheumatic drug, Methotrexate, was dissolved in PBS and then injected to mice at 1 mg/kg/day every other day in total 8-10 times. Meanwhile, the compounds of the invention were dissolved in ethanol and then mulsified in olive oil, in which the final ethanol concentration was adjusted to 5% and the compounds of this invention was 50 mg/kg/day.
From the 3rd week after primary immunization, the extent of edema and the joint swelling was monitored everyday to determine arthritic index. Arthitic index is the sum of the arthritic scores of all 4 legs and, therefore, maximum arthritis index of 16 can be achieved (e.g., [4 (maximum arthritic score)/leg]×[4 legs/mouse]=16 (maximum arthritis index/mouse)). […] was presented by the mean arthritis index±standard deviation of each mouse group.

IL-2 promoter = IL-2 promoter luciferase reporter assay in anti-CD3 activated Jurkat cells; format: cell-based; conditions: Homo sapiens, TCR-induced (anti-CD3) IL-2 promoter luciferase, 2 h pre-incubation
Procedure: In order to confirm whether the compounds of the invention can pass through a cell membrane and inhibit the expression of IL-2 gene leading to T-cell proliferation, the present inventors firstly confirmed T-cell activity by detecting the activity of the luciferase fused on the downstream of IL-2 promoter.
To investigate the activity of IL-2 promoter, Jurkat cells (1×10^6) were transfected with a IL-2 reporter plasmids using Superfect™ (Qiagen Inc.). After 24 hours of transfection, Jurkat cells were pre-incubated with compounds of various concentrations (1 uM-50 uM) for 2 hours and further cultured on 35mm plate pre-coated with 5 ug/ml of anti-CD3 antibody, resulting in T cell activation. The luciferase activity was measured using Berthold luminometer LB953. The IC50 (50% inhibition concentration) of the compounds of the invention on TCR-induced IL-2 promoter activation are shown in Table 2.

[2] = 100 mg/kg/day into abdominal cavity from day of transplantation until complete rejection

Structure (SMILES)	IC50 (GST-fused lck SH2 domain) [µM]	Survival time of skin graft tissue (days ± variance) (skin allograft rejection; [2]) [days]	Arthritis index [1]	IC50 (IL-2 promoter) [µM]	Survival time of skin graft tissue (days ± variance) (skin allograft rejection; Rapamycine 1 mg/kg/day) [days]	Survival time of skin graft tissue (days ± variance) (skin allograft rejection; Rapamycine 4 mg/kg/day) [days]	Survival time of skin graft tissue (days ± variance) (skin allograft rejection; Example (1) 50 mg/kg/day) [days]
COC(=O)[C@H](Cc1ccc(O)cc1)NC(=O)/C=C/c1ccc(O)c(O)c1 [Example 47, (S)-2-[trans-3-(3,4-dihydroxy-phenyl)-acryloylamino]-3-(4-hydroxy-phenyl)-propionic acid methyl ester]	25 to 50	11.7 ± 1.0	6.9 ± 1.1	21			
COC(=O)[C@H](Cc1ccc(O)c(O)c1)N(C)C(=O)/C=C/c1ccc(O)c(O)c1 [Example 36, 3-(3,4-dihydroxy-phenyl)-(S)-2-{[3-trans-(3,4-dihydroxy-phenyl)-acryloyl]-methyl-amino}-propionic acid methyl ester]	25 to 50	12.9 ± 0.9	6.1 ± 1.9	15			
COC(=O)[C@H](Cc1ccc(O)c(O)c1)NC(=O)/C=C/c1ccc(O)c(O)c1 [Example 8, 3-(3,4-dihydroxy-phenyl)-(S)-2-[3-trans-(3,4-dihydroxy-phenyl)-acryloylamino]-propionic acid methyl ester]	10 to 25	15.2 ± 1.1	6.0 ± 1.1	10.9			
CCCOC(=O)[C@H](Cc1ccc(O)c(O)c1)N(C)C(=O)/C=C/c1ccc(O)c(O)c1 [Example 39, 3-(3,4-dihydroxy-phenyl)-(S)-2-{[3-trans-(3,4-dihydroxy-phenyl)-acryloyl]-methyl-amino}-propionic acid propyl ester]	10 to 25	14.1 ± 1.2	5.7 ± 1.2	9.7			
NC(=O)[C@H](Cc1ccc(O)c(O)c1)NC(=O)/C=C/c1ccc(O)c(O)c1 [Example 14]	10 to 25	15.3 ± 0.9	5.3 ± 1.2	6.9			
CO[C@H]1C[C@@H]2CC[C@@H](C)[C@@](O)(O2)C(=O)C(=O)N2CCCC[C@H]2C(=O)O[C@H]([C@H](C)C[C@@H]2CC[C@@H](O)[C@H](OC)C2)CC(=O)[C@H](C)/C=C(\C)[C@@H](O)[C@@H](OC)C(=O)[C@H](C)C[C@H](C)/C=C/C=C/C=C/1C [Rapamycine, reference compound]					12.7 ± 1.5	16.2 ± 1.0	
COC(=O)C(Cc1ccc(O)c(O)c1)NC(=O)c1ccc(O)c(O)c1 (stereo not shown) [Example 51, 2-(3,4-dihydroxy-benzoylamino)-3-(3,4-dihydroxy-phenyl)-propionic acid methyl ester]	< 10	12.5 ± 1.1	5.5 ± 0.5	17.5			
CCCOC(=O)[C@H](Cc1ccc(O)c(O)c1)NC(=S)/C=C/c1ccc(O)c(O)c1 [Example 25, 3-(3,4-dihydroxy-phenyl)-(S)-2-[3-trans-(3,4-dihydroxy-phenyl)-thioacryloylamino]-propionic acid propyl ester]	10 to 25	14.8 ± 0.6	5.7 ± 0.4	9.7			
COC(=O)C(Cc1ccc(O)c(O)c1)NC(=O)Cc1ccc(O)c(O)c1 (stereo not shown) [Example 50, 3-(3,4-dihydroxy-phenyl)-2-[2-(3,4-dihydroxy-phenyl)-acetylamino]-propionic acid methyl ester]	< 10	12.8 ± 0.9	4.8 ± 1.1	18.6			
O=C(/C=C/c1ccc(O)c(O)c1)NCCc1ccc(O)c(O)c1 [Example 43, 3-(3,4-dihydroxy-phenyl)-N-[2-trans-(3,4-dihydroxy-phenyl)-ethyl]-acrylamide]	25 to 50	13.1 ± 0.9	6.0 ± 1.9	21.2			
CCOC(=O)[C@H](Cc1ccc(O)c(O)c1)NC(=O)/C=C/c1ccc(O)c(O)c1 [Example 10, 3-(3,4-dihydroxy-phenyl)-(S)-2-[3-trans-(3,4-dihydroxy-phenyl)-acryloylamino]-propionic acid ethyl ester]	10 to 25	15.3 ± 0.8	5.8 ± 0.8	4.4			
CC(C)(C)OC(=O)[C@@H](Cc1ccc(O)c(O)c1)OC(=O)/C=C/c1ccc(O)c(O)c1 [Example 56, (R)-3-(3,4-Dihydroxy-phenyl)-acrylic acid 2-(3,4-dihydroxy-phenyl)-1-tert-butoxycarbonyl ethyl ester]	25 to 50	12.9 ± 1.2	5.2 ± 0.5	6.2			
CN(C(=O)/C=C/c1ccc(O)c(O)c1)[C@@H](Cc1ccc(O)c(O)c1)C(N)=O [Example 42, N-[l-carbamoyl-2-(3,4-dihydroxy-phenyl)-ethyl]-(S)-3-trans-(3,4-dihydroxy-phenyl)-N-methyl-acrylamide]	10 to 25	14.3 ± 0.9	5.1 ± 1.9	14.6			
COC(=O)[C@@H](Cc1ccc(O)c(O)c1)NC(=O)/C=C/c1ccc(O)c(O)c1 [Example 1, 3-(3,4-dihydroxy-phenyl)-(R)-2-[3-trans-(3,4-dihydroxy-phenyl)-acryloylamino]-propionic acid methyl ester]	< 10	15.1 ± 1.5	4.3 ± 1.5	1.2			11.2 ± 0.5
COC(=O)C(Cc1ccc(O)c(O)c1)NC/C=C/c1ccc(O)c(O)c1 (stereo not shown) [Example 53, 3-(3,4-dihydroxy-phenyl)-2-[3-(3,4-dihydroxy-phenyl)-arylamino]-propionic acid methyl ester]		11.9 ± 1.1	9.8 ± 1.2	24.4			
COC(=O)[C@H](Cc1ccc(O)c(O)c1)NC(=S)/C=C/c1ccc(O)c(O)c1 [Example 22]	25 to 50		6.9 ± 1.2	13.9			
CCCOC(=O)[C@@H](Cc1ccc(O)c(O)c1)N(C)C(=O)/C=C/c1ccc(O)c(O)c1 [Example 32]	10 to 25		5.3 ± 1.7	9			
CCCOC(=O)[C@@H](Cc1ccc(O)c(O)c1)NC(=O)/C=C/c1ccc(O)c(O)c1 [Example 4, 3-(3,4-dihydroxy-phenyl)-(R)-2-[3-trans-(3,4-dihydroxy-phenyl)-acryloylamino]-propionic acid propyl ester]	< 10		5.6 ± 0.5	7.8			
O=C(O)[C@@H](Cc1ccc(O)c(O)c1)NC(=S)/C=C/c1ccc(O)c(O)c1 [Example 16, 3-(3,4-dihydroxy-phenyl)-(R)-2-[3-trans-(3,4-dihydroxy-phenyl)-thioacryloylamino]-propionic acid]	25 to 50		7.2 ± 1.2	6.7			
CC(C)OC(=O)[C@H](Cc1ccc(O)c(O)c1)N(C)C(=O)/C=C/c1ccc(O)c(O)c1 [Example 40, 3-(3,4-dihydroxy-phenyl)-(S)-2-{[3-trans-(3,4-dihydroxy-phenyl)-acryloyl]-methyl-amino}-propionic acid isopropyl ester]	10 to 25		5.9 ± 0.4	8.7			
